The source of these data is patent publication US20240076666A1, “Immunomodulators Targeting MORC3 for Interferon Induction” (The Regents of the University of California, priority 2021, published 2024).

This assay has as its system BLaER1 monocytes. Put plainly: Ectopic doxycycline-inducible expression of virulence factors, IFN induction by q-RT-PCR. In kind it is cell-based, human. The following applies: doxycycline-inducible lentiviral expression in BLaER1 monocytes, doxycycline 24 h; gene expression by q-RT-PCR. On the procedure:
BLaER1, U937 and THP-1 cells were cultured in RPMI Medium 1640 supplemented with L-glutamine, sodium pyruvate, 100 U/ml penicillin-streptomycin (Thermo Fisher) and 10% (v/v) FCS (Omega Scientific). HEK293T, U2OS and HCT116 cells were cultivated in DMEM Medium (Thermo Fisher) containing the same supplements. 1.4 million BLaER1 cells per well of a 6-well plate were trans-differentiated into monocytes for 5-6 days in medium containing 10 ng/ml of hrIL-3, 10 ng/ml hr-CSF-1 (M-CSF) (both PeproTech) and 100 nM β-Estradiol (Sigma-Aldrich) as previously described. 1.4 million THP-1 and U937 cells per well of a 6-well plate were differentiated overnight with 100 ng/ml PMA (Sigma-Aldrich). STING-deficient and corresponding control THP1 and U937 cells were a gift from Dan Stetson (University of Washington). BLaER1 cells were a gift from Thomas Graf (CRG, Barcelona, Spain) and Veit Hornung (LMU Munich, Germany). U2OS cells were a gift from Robert Tjian and Xavier Darzacq (UC Berkeley). THP1 cells were from ATCC. U937 cells were from the UC Berkeley Cell Culture Facility. HCT116 cells were a gift from David Raulet (UC Berkeley). […]
Gene expression was quantified by quantitative PCR with reverse transcription (RT-qPCR). […] SYBRGreen dye (Thermo Fisher Scientific) was used for quantitative PCR assays and analyzed with a real-time PCR system (StepOnePlus; Applied Biosystems). […]

With “ICP0: key virulence factor of Herpes Simplex Virus-1, SUMO-directed E3 ubiquitin ligase; Accession No. YP_009137074.1, SEQ ID NO: 2”, the “IFN induction (IFN response)” value is “led to an IFN response”.

As to “ICP0 D199A: predominantly nuclear variant of ICP0”, the “IFN induction (IFN response)” value is listed as “not impaired in IFN induction”.
